The subject of the first assay is MIA-PACA2 pancreatic cancer cell lines. As to the kind of experiment: Cell proliferation assay (CellTiter 96 AQueous One). Conditions: Homo sapiens, MIA PaCa-2; MIA-PACA2, same assay as the % inhibition (standard conditions). Format: cell-based.
Usually IC50 stands for the concentration that gives 50% inhibition. Read a low IC50 as higher potency. Turning to `CN(C)Cc1ccc(-c2csc3c(O)nc(-c4ccccn4)nc23)cc1F` [drawing 1721], the IC50 was in the range of 100 to 500 nM.

Still in this assay, the particulars now being: Homo sapiens, MIA PaCa-2; at 30 μM, MIA-PACA2.
Broadly, the inhibition is the drop in the measured response relative to a control, in per cent. Read a low inhibition as a weak effect. As for `Oc1nc(-c2ccccn2)nc2sc3c(c12)CCCNC3` [drawing 1728], the inhibition at 30 µM is 25 to 50%.

Molecule `O=C(c1csc2c(O)nc(-c3ccccn3)nc12)N1CCC(c2ccncc2)C1` (centres unmarked) [drawing 1715] came in with an inhibition at 30 µM of 76 to 100%. Consider `OCCNc1nc(-c2ccccn2)nc2scc(-c3ccccc3)c12` [drawing 1509], for which the inhibition at 30 µM lay in the range of 76 to 100%. The molecule `CC(C)(C(=O)Nc1ccnc(-c2ccccn2)n1)c1ccc(C#N)cc1` [drawing 1645] came in with an inhibition at 30 µM of 76 to 100%. Same read-out and setting: in the case of `O=C(Nc1nnc(-c2ccccn2)[nH]1)c1ccn(-c2cccc(Cl)c2)n1` [drawing 1468] it was 76 to 100%.

`N#Cc1ccc(COCC(=O)Nc2nc(-c3ccccn3)nc3sccc23)cc1` [drawing 1692] came in with an inhibition at 30 µM of 76 to 100%. In turn, `O=C(NCCc1nnn[nH]1)c1csc2nc(-c3ccccn3)nc(N3CCOCC3)c12` [drawing 1679] gave an inhibition at 30 µM of 51 to 75%. In the case of `NC(=O)c1ccc(OCC(=O)Nc2nnc(-c3ccccn3)[nH]2)cc1` [drawing 1450], the inhibition at 30 µM lay in the range of 1 to 25%. `O=C(c1csc2c(O)nc(-c3ccccn3)nc12)N1CCOC(c2cccc(Cl)c2)C1` (centres unmarked) [drawing 1663] came in with an inhibition at 30 µM of 76 to 100%. The same measure, in the same setting: in the case of `CC1CCc2sc(C(=O)Nc3nnc(-c4ccccn4)[nH]3)cc2C1` (centres unmarked) [drawing 1443] it was 76 to 100%.

Consider `O=C(NCCc1cncnc1)c1csc2nc(-c3ccccn3)nc(N3CCOCC3)c12` [drawing 1677], for which the inhibition at 30 µM is 76 to 100%. The same measure, in the same setting: in the case of `O=C(Nc1nnc(-c2ccccn2)[nH]1)c1csc(-c2ccco2)n1` [drawing 1457] it was 76 to 100%; in that of `Oc1nc(-c2ccccn2)nc2c(-c3ccccc3C(F)F)csc12` [drawing 1759], 76 to 100%; in that of `Cc1ccccc1C1CN(C(=O)c2csc3c(O)nc(-c4ccccn4)nc23)CCN1` (centres unmarked) [drawing 1668], 76 to 100%. The same measure, in the same setting: in the case of `O=C(NCCc1cnc(O)nc1)c1csc2nc(-c3ccccn3)nc(N3CCS(=O)(=O)CC3)c12` [drawing 1730] it was 1 to 25%; in that of `O=C(c1csc2c(O)nc(-c3ccccn3)nc12)N(CCO)CCOCCO` [drawing 1576], 1 to 25%; in that of `Oc1nc(-c2ccccn2)nc2c(-c3ccsc3)csc12` [drawing 1751], 76 to 100%. Molecule `O=C(NCCc1cccnc1)c1csc2c(O)nc(-c3ccccn3)nc12` [drawing 1578] showed an inhibition at 30 µM of 76 to 100%.

In turn, `COc1ccc(-c2csc3[nH]c(-c4ccccn4)nc(=O)c23)cc1` [drawing 1489] returned an inhibition at 30 µM of 76 to 100%. Same read-out and setting: to `COc1ccc(CCN(C)C(=O)c2csc3nc(-c4ccccn4)nc(N4CCOCC4)c23)cn1` [drawing 1640] belongs 76 to 100%. `O=C(c1csc2c(O)nc(-c3ccccn3)nc12)N1CCC(N2CCCC2=O)CC1` [drawing 1568] displayed an inhibition at 30 µM of 1 to 25%. In the case of `Oc1nc(-c2ccccn2)nc2c(-c3cncc(C(F)(F)F)c3)csc12` [drawing 1788], the inhibition at 30 µM fell in the range of 76 to 100%. The molecule `CN(Cc1nnc(-c2ccccc2Cl)o1)Cc1ccccc1C(F)(F)F` [drawing 1406] had an inhibition at 30 µM of 25 to 50%.

As for `CC(C)C1=C(O)C2(CC2c2ccc(-c3ccccc3)cc2)C(C)CC1` (centres unmarked) [drawing 1540], the inhibition at 30 µM was 76 to 100%.

For the molecule `O=C(Cn1cnc2ccccc2c1=O)Nc1nc(-c2ccccn2)cs1` [drawing 1481], the inhibition at 30 µM was in the range of 76 to 100%. Still for that read-out and setting: in the case of `COC(=O)c1cncc(C(=O)Nc2nnc(-c3ccccn3)[nH]2)c1` [drawing 1441] it was 25 to 50%; in that of `O=C(c1csc2c(O)nc(-c3ccccn3)nc12)N1CCN(Cc2cccc(O)c2)CC1` [drawing 1634], 76 to 100%; in that of `O=C(COCc1ccccc1Cl)Nc1nnc(-c2ccccn2)[nH]1` [drawing 1431], 76 to 100%. Take `Cc1ccc(CC(=O)Nc2nnc(-c3ccccn3)[nH]2)cn1` [drawing 1419]: the inhibition at 30 µM was in the range of 51 to 75%. On the same count and under the same terms, to `O=C(CC1C=CCC1)Nc1nnc(-c2ccccn2)[nH]1` (centres unmarked) [drawing 1407] belongs 51 to 75%; to `CCN(CC)C(=O)CN1CCN(c2nc(-c3ccccn3)nc3scc(-c4ccccc4)c23)CC1` [drawing 1613], 76 to 100%. In the case of `COc1cccc(CC(=O)Nc2nnc(-c3ccccn3)[nH]2)c1` [drawing 1390], the inhibition at 30 µM lay within 25 to 50%. `Nc1nc(-c2ccccn2)nc2ccsc12` [drawing 1710] yielded an inhibition at 30 µM of 1 to 25%. On the same count and under the same terms, in the case of `COCCCC1CCN(C(=O)c2csc3c(O)nc(-c4ccccn4)nc23)CC1` [drawing 1566] it was 76 to 100%.

Regarding `CN(C)Cc1ccc(-c2csc3c(O)nc(-c4ccccn4)nc23)cc1F` [drawing 1721], the inhibition at 30 µM was in the range of 76 to 100%.

Take `N#CC1(c2ccc(C(=O)N3CCCC3CO)cc2)CC1` (centres unmarked) [drawing 1537]: the inhibition at 30 µM was in the range of 51 to 75%. `COc1ccc(-c2csc3c(O)nc(-c4ccccn4)nc23)c(C)c1` [drawing 1757] showed an inhibition at 30 µM of 76 to 100%. On to `O=C(Cc1ccc2c(c1)OCCO2)Nc1nnc(-c2ccccn2)[nH]1` [drawing 1461], for which the inhibition at 30 µM was 51 to 75%.

Consider `CC(C)COC(C)C(=O)Nc1nnc(-c2ccccn2)[nH]1` (centres unmarked) [drawing 1418], for which the inhibition at 30 µM lay within 76 to 100%. The molecule `CON(C)c1nc(-c2ccccn2)nc2scc(-c3ccccc3)c12` [drawing 1610] registered an inhibition at 30 µM of 76 to 100%. Turning to `CC(Oc1ccccc1Cl)C(=O)Nc1nnc(-c2ccccn2)[nH]1` (centres unmarked) [drawing 1396], the inhibition at 30 µM was 76 to 100%. Molecule `O=C(Nc1nnc(-c2ccccn2)[nH]1)c1ccc(CN2C(=O)CCC2=O)cc1` [drawing 1405] came in with an inhibition at 30 µM of 1 to 25%.

`O=C(CC(c1ccccc1)c1ccccc1)N1CCCc2c(O)nc(-c3ccccn3)nc21` [drawing 1555] showed an inhibition at 30 µM of 76 to 100%. Still for that read-out and setting: to `O=c1nc(-c2ccccn2)[nH]c2sc(-c3ccccc3)cc12` [drawing 1495] belongs 76 to 100%; to `CNC(=O)c1ccc(-c2csc3c(O)nc(-c4ccccn4)nc23)cc1C` [drawing 1761], 76 to 100%. Same read-out and setting: in the case of `CC(Oc1cccc(C#N)c1)C(=O)Nc1nnc(-c2ccccn2)[nH]1` (centres unmarked) [drawing 1424] it was 76 to 100%; in that of `Cc1sc2[nH]c(-c3ccccn3)nc(=O)c2c1-c1ccccc1` [drawing 1493], 76 to 100%. Regarding `c1ccc(-c2nc(N3CCOCC3)c3ccsc3n2)nc1` [drawing 1588], the inhibition at 30 µM lay within 51 to 75%. `CS(=O)(=O)c1cccc(C(=O)N2CCCc3c(O)nc(-c4ccccn4)nc32)c1` [drawing 1549] showed an inhibition at 30 µM of 1 to 25%. On the same count and under the same terms, in the case of `Cc1sc2c(O)nc(-c3ccccn3)nc2c1-c1ccccc1` [drawing 1781] it was 76 to 100%. Still for that read-out and setting: in the case of `O=C(Nc1nnc(-c2ccccn2)[nH]1)c1nc(N2CCOCC2)ncc1Cl` [drawing 1421] it was 76 to 100%; in that of `COc1cnc(-c2ccccn2)nc1O` [drawing 1791], 76 to 100%. The same measure, in the same setting: to `O=C(c1cc2nc(-c3ccccn3)nc(O)c2s1)N1CCOC(c2ccccc2)C1` (centres unmarked) [drawing 1718] belongs 76 to 100%; to `O=C(Nc1nnc(-c2ccccn2)[nH]1)C1CC1c1ccc(F)cc1` (centres unmarked) [drawing 1432], 51 to 75%; to `CS(=O)(=O)Cc1ccc(C(=O)Nc2nc(-c3ccccn3)cs2)cc1` [drawing 1479], 76 to 100%.

The record behind these values is patent US10940139B2, “Compounds that interact with the Ras superfamily for the treatment of cancers, inflammatory diseases, rasopathies, and fibrotic disease” (Shy Therapeutics LLC, priority 2017, dated 2021).
